“And” between values parts separate entries of the source, which are not always exact repeats. Equal entries are not always repeated. Where two headings read alike, the source gives them in different places.
Experiment: Phase 1 multiple ascending dose (Part B) pharmacokinetics after low-fat meal
Assay type: in vivo, human
Details: for Tmax: median; for AUC: read-out: AUC0-τ; for CL renal: urine and plasma
Protocol: In Part B, 24 subjects were studied in 3 groups (Groups B1 to B3), with each group consisting of 8 subjects (6 received Compound I and 2 received placebo). The dose, dosing frequency, duration, and dietary state for Part B were determined based on review of available PK, safety, and tolerability data from Parts A and B.
All doses in Part B were administered following administration of a low-fat meal. In Groups B1 and B3, Compound I (200 mg for Group B1, 275 mg for Group B3) or placebo was administered twice daily (BID) on Days 1 to 6 and once on the morning of Day 7. In Group B2, subjects received QD dosing with 525 mg Compound I or placebo on Days 1 to 7.
In Part B, each subject participated in 1 treatment period. Subjects resided at the CRU from Day −1 (the day before dosing) until the morning of Day 10 (72 hours after the final dose on Day 7). All subjects returned for a Follow-up visit between 5 to 14 days after their final dose.
In Part B, all doses were administered after a low-fat meal. On Day 1 and Day 7 (days with post-dose PK sampling), subjects started a low-fat breakfast 30 minutes prior to dosing and were given 15 minutes to complete their meal; dosing occurred approximately 15 minutes after completion of breakfast. On dosing Days 2 through 6, subjects were to complete their breakfast within an hour prior to dosing. For the evening doses, subjects were given a standard meal and completed their meal between 1 and 2 hours prior to dosing.

[1] = 200 mg BID (B1), Day 1, low-fat meal
[2] = 200 mg BID (B1), Day 7, low-fat meal
[3] = 275 mg BID (B3), Day 1, low-fat meal
[4] = 275 mg BID (B3), Day 7, low-fat meal
[5] = 525 mg QD (B2), Day 1, low-fat meal
[6] = 525 mg QD (B2), Day 7, low-fat meal
[7] = human, plasma, oral, 200 mg, 200 mg BID (B1), Day 1, low-fat meal
[8] = human, plasma, oral, 200 mg, 200 mg BID (B1), Day 7, low-fat meal
[9] = human, plasma, oral, 275 mg, 275 mg BID (B3), Day 1, low-fat meal
[10] = human, plasma, oral, 275 mg, 275 mg BID (B3), Day 7, low-fat meal
[11] = human, plasma, oral, 525 mg, 525 mg QD (B2), Day 1, low-fat meal
[12] = human, plasma, oral, 525 mg, 525 mg QD (B2), Day 7, low-fat meal
[13] = human, plasma, oral, 200 mg BID (B1), Day 7, low-fat meal
[14] = human, plasma, oral, 275 mg BID (B3), Day 7, low-fat meal
[15] = human, plasma, oral, 525 mg QD (B2), Day 7, low-fat meal

AUC0-τ(norm) [1]: 11300 hr*ng/mL/(mg/kg)
Ae0-12 [1]: 105 mg
Cmax (norm) [1]: 1970 ng/mL/(mg/kg)
fe0-12 [1]: 52.5%
AUC0-τ(norm) [2]: 12600 hr*ng/mL/(mg/kg)
Ae0-12 [2]: 142 mg
CL/F [2]: 85.9 mL/min
CL/F(norm) [2]: 1.32 (mL/min)/kg
Cmax (norm) [2]: 1970 ng/mL/(mg/kg)
RAAUC (accumulation ratio based on AUC0-τ) [2]: 1.1 and 1.11
fe0-12 [2]: 71.2%
λZ [2]: 0.142 h⁻¹
Mean pre-dose (trough) Compound I concentration (200 mg BID, Day 7): 1680 ng/mL
AUC0-τ(norm) [3]: 9560 hr*ng/mL/(mg/kg)
Ae0-12 [3]: 162 mg
Cmax (norm) [3]: 1540 ng/mL/(mg/kg)
fe0-12 [3]: 58.9%
AUC0-τ(norm) [4]: 14300 hr*ng/mL/(mg/kg)
Ae0-12 [4]: 190 mg
CL/F [4]: 81.1 mL/min
CL/F(norm) [4]: 1.16 (mL/min)/kg
Cmax (norm) [4]: 1900 ng/mL/(mg/kg)
RAAUC (accumulation ratio based on AUC0-τ) [4]: 1.5
fe0-12 [4]: 69.1%
λZ [4]: 0.123 h⁻¹
Fold increase in geometric mean Cmax (275 mg BID vs 200 mg BID (1.4-fold increase in dose)): 1.2 fold
Mean pre-dose (trough) Compound I concentration (275 mg BID, Day 7): 3260 ng/mL
AUC0-τ(norm) [5]: 10500 hr*ng/mL/(mg/kg)
Ae0-12 [5]: 171 mg
Ae0-24 [5]: 242 mg
Cmax (norm) [5]: 1140 ng/mL/(mg/kg)
fe0-12 [5]: 32.6%
fe0-24 [5]: 46.1%
AUC0-τ(norm) [6]: 13100 hr*ng/mL/(mg/kg)
Ae0-12 [6]: 185 mg
Ae0-24 [6]: 284 mg
CL/F [6]: 89.4 mL/min
CL/F(norm) [6]: 1.27 (mL/min)/kg
Cmax (norm) [6]: 1260 ng/mL/(mg/kg)
RAAUC (accumulation ratio based on AUC0-τ) [6]: 1.3 and 1.25
fe0-12 [6]: 35.3%
fe0-24 [6]: 54.0%
λZ [6]: 0.0544 h⁻¹
Fold increase in geometric mean AUC0-∞ (525 mg QD vs 200 mg BID (2.6-fold increase in dose)): 2.5 fold
Mean pre-dose (trough) Compound I concentration (525 mg QD, Day 7): 897 ng/mL
Time to steady-state plasma concentrations (200 and 275 mg BID and 525 mg QD): ≤ 2 days
Tmax at 1 day (human, plasma, oral, 200 mg BID, 275 mg BID, 525 mg QD, Day 1, read-out: Median tmax, range across regimens): 2.3 to 3.5 h
Tmax at 7 day (human, plasma, oral, 200 mg BID, 275 mg BID, 525 mg QD, Day 7, read-out: Median tmax, range across regimens): 2.8 to 4 h
Cmax [7]: 6080 ng/mL
Tmax [7]: 3 h
AUC [7]: 34900 ng·h/mL
Cmax [8]: 6060 ng/mL
Tmax [8]: 4 h
AUC [8]: 38800 ng·h/mL
Cmax [9]: 6070 ng/mL
Tmax [9]: 2.28 h
AUC [9]: 37700 ng·h/mL
Cmax [10]: 7500 ng/mL
Tmax [10]: 2.75 h
AUC [10]: 56500 ng·h/mL
Cmax [11]: 8510 ng/mL
Tmax [11]: 3.5 h
AUC [11]: 78100 ng·h/mL
Cmax [12]: 9440 ng/mL
Tmax [12]: 3.53 h
AUC [12]: 97800 ng·h/mL
half-life [13]: 4.89 h
half-life at 7 day [13]: 4.9 h
Vd/F (human, plasma, oral, 200 mg BID (B1), Day 7, low-fat meal, read-out: Vz/F): 36.1 L
Vd/F (human, plasma, oral, 200 mg BID (B1), Day 7, low-fat meal, read-out: Vz/F(norm)): 0.576 L/kg
half-life [14]: 5.64 h
half-life at 7 day [14]: 5.6 h
Vd/F (human, plasma, oral, 275 mg BID (B3), Day 7, low-fat meal, read-out: Vz/F): 39.6 L
Vd/F (human, plasma, oral, 275 mg BID (B3), Day 7, low-fat meal, read-out: Vz/F(norm)): 0.568 L/kg
half-life [15]: 6.25 h
half-life at 7 day [15]: 6.3 h
Vd/F (human, plasma, oral, 525 mg QD (B2), Day 7, low-fat meal, read-out: Vz/F): 98.6 L
Vd/F (human, plasma, oral, 525 mg QD (B2), Day 7, low-fat meal, read-out: Vz/F(norm)): 1.4 L/kg
CL renal (human, oral, 200 mg, 200 mg BID (B1), Day 1, low-fat meal): 50.2 mL/min
CL renal (human, oral, 200 mg, 200 mg BID (B1), Day 7, low-fat meal): 61.2 mL/min
CL renal (human, oral, 275 mg, 275 mg BID (B3), Day 1, low-fat meal): 71.6 mL/min
CL renal (human, oral, 275 mg, 275 mg BID (B3), Day 7, low-fat meal): 56.1 mL/min
CL renal (human, oral, 525 mg, 525 mg QD (B2), Day 1, low-fat meal): 51.7 mL/min
CL renal (human, oral, 525 mg, 525 mg QD (B2), Day 7, low-fat meal): 48.3 mL/min
SMILES: Cn1cc(-c2cn(-c3ccc(OC(F)(F)F)cc3)c(=O)c3ncn(C)c23)cn1 [Compound I]
